The text below walks through data of patent US6372772B1, “Inhibitors of redox signaling and methods of using same” (Prolx Pharmaceuticals Corporation, priority 1997, dated 2002).

In brackets after ≈: the same amount, converted by molar mass. Where two headings read alike, the source gives them in different places.

The target in assay [1] is T1, thioredoxin reductase/thioredoxin (Homo sapiens, UniProt Q16881).
T1 sequence (Q16881 1-499 isoform Q16881-5): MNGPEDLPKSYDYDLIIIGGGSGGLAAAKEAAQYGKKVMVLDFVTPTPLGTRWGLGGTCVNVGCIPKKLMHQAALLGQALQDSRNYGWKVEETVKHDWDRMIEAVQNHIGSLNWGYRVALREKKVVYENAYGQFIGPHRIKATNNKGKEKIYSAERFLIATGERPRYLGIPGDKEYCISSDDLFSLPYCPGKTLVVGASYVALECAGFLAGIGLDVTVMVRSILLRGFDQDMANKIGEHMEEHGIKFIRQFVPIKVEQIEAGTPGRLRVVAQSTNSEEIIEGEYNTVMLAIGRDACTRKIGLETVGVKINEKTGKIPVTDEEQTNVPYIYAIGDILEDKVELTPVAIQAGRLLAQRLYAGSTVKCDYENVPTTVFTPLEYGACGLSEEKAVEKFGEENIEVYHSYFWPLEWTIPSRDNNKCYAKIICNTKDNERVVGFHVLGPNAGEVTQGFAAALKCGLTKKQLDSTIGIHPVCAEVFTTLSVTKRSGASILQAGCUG
Nature of the assay: thioredoxin reductase/thioredoxin-dependent insulin reduction assay. Format: biochemical.

Another assay concerns the target T2, glutathione reductase (Homo sapiens, UniProt P00390).
T2 sequence (P00390 1-479 isoform P00390-2): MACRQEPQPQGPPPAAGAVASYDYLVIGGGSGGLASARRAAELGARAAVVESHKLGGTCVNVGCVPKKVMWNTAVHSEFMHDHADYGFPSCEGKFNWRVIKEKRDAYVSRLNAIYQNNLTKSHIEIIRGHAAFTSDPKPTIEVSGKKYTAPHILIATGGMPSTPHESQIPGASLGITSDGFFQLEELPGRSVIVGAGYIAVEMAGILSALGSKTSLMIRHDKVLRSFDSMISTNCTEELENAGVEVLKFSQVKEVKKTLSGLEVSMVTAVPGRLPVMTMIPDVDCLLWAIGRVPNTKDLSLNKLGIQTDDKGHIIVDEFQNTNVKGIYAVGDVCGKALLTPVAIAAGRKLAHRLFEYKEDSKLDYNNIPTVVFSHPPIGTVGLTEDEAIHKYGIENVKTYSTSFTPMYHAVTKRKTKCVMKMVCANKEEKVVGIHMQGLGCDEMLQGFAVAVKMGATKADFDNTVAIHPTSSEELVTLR
Nature of the assay: glutathione reductase assay (DTNB reduction). The assay is classed as biochemical.

Assay [2] has as its system NCI's panel of 60 human cancer cell lines. To be noted: cited from earlier work.
In a further assay the test system is leukemia cell line. To be noted: cited from earlier work.
The target of another assay is T3, thioredoxin reductase (Homo sapiens, UniProt Q16881).
T3 sequence (Q16881 1-499 isoform Q16881-5): T1 sequence (Q16881 1-499 isoform Q16881-5)
Nature of the assay: biochemical.

The test system of assay [3] is human MCF-7 breast cancer. Nature of the assay: MCF-7 breast cancer xenografts in scid mice. The assay is classed as in vivo. The conditions noted are these: for tumor inhibition: MCF-7 tumor system.
The subject of a further assay is HL-60 leukemia. Nature of the assay: HL-60 leukemia xenografts in scid mice. The assay is classed as in vivo. To be noted: for antitumor activity against HL-60 leukemia: a number of the animals without tumor at day 45.
The subject of assay [4] is MCF-7 breast cancer cells. To be noted: read-out: EC50 for thioredoxin growth stimulation; cited from earlier work.
For a further assay, the system named is tumors in the colon. Nature of the assay: min (multiple intestinal neoplasia) mouse chemoprevention. Format: in vivo. To be noted: in the diet at 250 ppm. From the text:
The min mouse has a germline mutation in the APC gene seen in human familial adenomatous polyposis (FAP). This model was chosen because of its genetic basis and as an alternative to chemically-induced models of colon cancer. The majority of the tumors that develops in the adult min mice are in the small intestine, although tumors are first diagnosed in the colon. FAP represents a high risk group of subjects with a readily identifiable early end-point marker that is suitable for trials of novel chemopreventive agents.

Assay [5] relates to thioredoxin-dependent cell proliferation. Nature of the assay: thioredoxin- versus serum-dependent cell proliferation in culture. The assay is classed as cell-based.
[6] abbreviates: ratio of IC50 TR alone and IC50 TR/Trx assay.
[7] abbreviates: mean 50% growth inhibition concentration, entire cell line panel.
Where [8] appears, read: mean 50% growth inhibition concentration, leukemias.
[9] abbreviates: Table I, 30 min preincubation, read-out: IC50 (μg/ml) in TR/Trx Assay (converted).
Setting [10] is: Table II, read-out: IC50TRTrx (μg/ml) (converted).
[11] abbreviates: Table III, read-out: in vitro IC50 TR/Trx (μg/ml) (converted).
The mark [12] stands for this setting: Table II, read-out: IC50GR (μg/ml) (converted).

On to `CC(C)(CN1C(=O)C(Cl)=C(Cl)C1=O)CN1C(=O)C(Cl)=C(Cl)C1=O` [NSC 617145], for which the IC50 in assay [1] (IC50 (μg/ml) in TR/Trx Assay) was 0.3 µM; in [1] (IC50TRTrx (μg/ml)) it was 0.3 µM; in [1] (in vitro IC50 TR/Trx (μg/ml)) it was not above 1.25 µM; against glutathione reductase it was 125 µM. For the same molecule, the TR/TRTrx in assay [1] (setting [6]) stood at 0.8. Besides, the “GI50 (μg/ml) All Tumors” value in assay [2] (setting [7]) is 4.4 µg/mL (≈ 11 µM). Besides, in the assay with leukemia cell line (setting [8]), the “GI50 (μg/ml) Leukemias” value is 0.2 µg/mL (≈ 0.5 µM).
For `CCCC(=O)OC1C2C(CC1(C)C)C(=O)C13OC1C(=O)C1(CO1)C23C` (centres unmarked) [NSC 163027], the IC50 in [1] (setting [9]) is 1.09 µM; in assay [1] (setting [10]), 1.09 µM; in assay [1] (setting [11]), not above 1.44 µM; on glutathione reductase (setting [12]), 115 µM; on thioredoxin reductase, 14.4 µM. In assay [1] (setting [6]), the TR/TRTrx was determined as 13.2. Further, in assay [2] (setting [7]), the “GI50 (μg/ml) All Tumors” value was 3.1 µg/mL (≈ 8.9 µM). Also, in the assay on leukemia cell line (setting [8]), the “GI50 (μg/ml) Leukemias” value was 0.6 µg/mL (≈ 1.72 µM).
Regarding `CC1COC2C3=C(C(=O)C=CC3=O)C3OC(=O)C4CCC5CC1CCC52C43` (centres unmarked) [NSC 401005], the IC50 in assay [1] (setting [9]) is 0.163 µM; in assay [1] (setting [10]), 0.163 µM; in assay [1] (setting [11]), not above 0.271 µM; at glutathione reductase (setting [12]) it was 40.7 µM. Also, the TR/TRTrx in assay [1] (setting [6]) worked out at 1.7. Further, in [2] (setting [7]), the “GI50 (μg/ml) All Tumors” value is 7.6 µg/mL (≈ 20.6 µM). For the same molecule, the “GI50 (μg/ml) Leukemias” value in the assay on leukemia cell line (setting [8]) was 1.8 µg/mL (≈ 4.89 µM).
For the molecule `CCc1cccc(CC)c1NC(=O)/C(Cl)=C(/Cl)C(=O)O` [NSC 618605], the IC50 in assay [1] (setting [9]) was 0.38 µM; in assay [1] (setting [10]), 0.38 µM; in [1] (setting [11]) it was not above 1.58 µM; on glutathione reductase (setting [12]), 108 µM. The TR/TRTrx in assay [1] (setting [6]) came out at 0.8. The “GI50 (μg/ml) All Tumors” value in [2] (setting [7]) is 7.2 µg/mL (≈ 22.8 µM). Also, the “GI50 (μg/ml) Leukemias” value in the assay on leukemia cell line (setting [8]) was 2.5 µg/mL (≈ 7.91 µM).
Turning to `Cc1cc2c(c(O)c1-c1c(C)cc(O)c3c1C(=O)C=CC3=O)C(=O)C=CC2=O` [NSC 208731], the IC50 in [1] (setting [9]) was 0.267 µM; in assay [1] (setting [10]), 0.267 µM; in assay [1] (setting [11]) it was not above 0.267 µM; at glutathione reductase (setting [12]) it was 13.4 µM. Also, the TR/TRTrx in assay [1] (setting [6]) stood at 1.0. Besides, the “GI50 (μg/ml) All Tumors” value in assay [2] (setting [7]) is 0.6 µg/mL (≈ 1.6 µM). For the same molecule, the “GI50 (μg/ml) Leukemias” value in the assay on leukemia cell line (setting [8]) is 0.03 µg/mL (≈ 0.0801 µM).
In the case of `c1ccc(CSSc2ncc[nH]2)cc1` [DLK-36, benzyl-2-imidazolyl disulfide], in assay [1] (setting [11]), the IC50 was 180 µM. For the same molecule, the “T/C % tumor volume at day 28” value in assay [3] (25 mg/kg/day for 14 days) worked out at 100.7%; in assay [3] (40 mg/kg/day for 14 days), 23.7%. The same molecule came in with a tumor inhibition in [3] of 65%. For the same molecule, the “antitumor activity against HL-60 leukemia” value in the assay on HL-60 leukemia was “showed antitumor activity”.
For the molecule `C=C(CN(C)C)C(=O)c1ccc(C)cc1C` [NSC 382000], the IC50 in assay [1] (setting [9]) was 0.46 µM; in assay [1] (setting [10]), 0.46 µM; in assay [1] (setting [11]) it was not above 0.46 µM; on glutathione reductase (setting [12]), 13.8 µM. In addition, the TR/TRTrx in assay [1] (setting [6]) came out at 1.0. The “GI50 (μg/ml) All Tumors” value in [2] (setting [7]) was 1.0 µg/mL (≈ 4.6 µM). For the same molecule, the “GI50 (μg/ml) Leukemias” value with leukemia cell line (setting [8]) was 0.1 µg/mL (≈ 0.46 µM).
For `O=[N+]([O-])C(=C(Sc1ccccc1)Sc1ccccc1)C(Cl)=C(Cl)Cl` [NSC 665103], the IC50 in [1] (setting [9]) is 0.239 µM; in [1] (setting [10]) it was 0.239 µM; in assay [1] (setting [11]), not above 0.239 µM; at glutathione reductase (setting [12]), 76.4 µM; against thioredoxin reductase, 11.9 µM. The TR/TRTrx in [1] (setting [6]) came to 50.0. The “GI50 (μg/ml) All Tumors” value in [2] (setting [7]) is 0.4 µg/mL (≈ 0.955 µM). Moreover, the “GI50 (μg/ml) Leukemias” value in the assay on leukemia cell line (setting [8]) was 0.04 µg/mL (≈ 0.0955 µM).
For `Cc1cccc2c1c1ccc3c(c1n2C)C(=O)C=CC3=O` [NSC 645330], the IC50 is 6.9 µM in assay [1] (setting [9]); 6.87 µM in assay [1] (setting [10]); not above 18.2 µM in assay [1] (setting [11]); 182 µM on glutathione reductase (setting [12]); 182 µM against thioredoxin reductase. Besides, the TR/TRTrx in assay [1] (setting [6]) came out at 26.5. For the same molecule, in [2] (setting [7]), the “GI50 (μg/ml) All Tumors” value was 1.5 µg/mL (≈ 5.45 µM). For the same molecule, the “GI50 (μg/ml) Leukemias” value with leukemia cell line (setting [8]) was 0.3 µg/mL (≈ 1.09 µM).
Molecule `COC(=O)C(CBr)CBr` [NSC 620109] came in with a TR/TRTrx in [1] of 0.3. The IC50 is 1.23 µM in assay [1] (read-out: IC50 (μg/ml) in TR/Trx Assay (converted)), 1.23 µM in [1] (read-out: IC50TRTrx (μg/ml) (converted)), not above 1.92 µM in [1] (read-out: in vitro IC50 TR/Trx (μg/ml) (converted)) and 127 µM on glutathione reductase (read-out: IC50GR (μg/ml) (converted)). In addition, the “GI50 (μg/ml) All Tumors” value in assay [2] is 1.1 µg/mL (≈ 4.23 µM). The “GI50 (μg/ml) Leukemias” value in the assay on leukemia cell line is 0.2 µg/mL (≈ 0.769 µM).
A word on the EC50: it is the midpoint of the concentration-response curve. For the molecule thioredoxin, the EC50 in assay [4] is 0.35 µM.
`Cc1ccc(NC(=O)/C(Cl)=C(/Cl)C(=O)O)cc1` [NSC 622378]: the IC50 in assay [1] (setting [9]) was 0.438 µM; in assay [1] (setting [10]), 0.438 µM; in assay [1] (setting [11]) it was not above 1.82 µM; on glutathione reductase (setting [12]), 73 µM. In addition, in assay [1] (setting [6]), the TR/TRTrx was 0.8. In assay [2] (setting [7]), the “GI50 (μg/ml) All Tumors” value was 5.0 µg/mL (≈ 18.2 µM). For the same molecule, the “GI50 (μg/ml) Leukemias” value in the assay on leukemia cell line (setting [8]) was 1.6 µg/mL (≈ 5.84 µM).
Regarding `CCC(C)SSc1ncc[nH]1` (centres unmarked) [IV-2, 1-methylpropyl 2-imidazolyl disulfide], the results for the “T/C % tumor volume at day 28” value in assay [3] (5 mg/kg/day for 14 days), in [3] (10 mg/kg/day for 14 days) and in assay [3] (15 mg/kg/day for 14 days) were 56.7%, 45.9% and 2.3%, respectively. Moreover, in assay [3], the tumor inhibition was 98%. For the same molecule, in assay [3] (scid mice), the “antitumor activity against MCF-7 xenografts” value is reported as “dose-dependent antitumor activity”. In the assay with HL-60 leukemia, the “antitumor activity against HL-60 xenografts” value was “dose-dependent antitumor activity”. In the assay on HL-60 leukemia, the “antitumor activity against HL-60 leukemia” value is “showed antitumor activity”. In addition, the “size of remaining tumors” value with tumors in the colon (p<0.001 compared to control) is recorded as “significant reduction in the size of remaining tumors”. In addition, the “reduction of number of tumors in the colon” value with tumors in the colon (p=0.0160) is reported as 70%. Also, in assay [5], the “inhibition of thioredoxin- versus serum-dependent cell proliferation” value is recorded as “greater inhibition of thioredoxin than serum-dependent cell proliferation”.
